{"source": "ChEMBL document CHEMBL5523667", "about": "“Blood-stage antimalarial activity, favourable metabolic stability and in vivo toxicity of novel piperazine linked 7-chloroquinoline-triazole conjugates” (Eur J Med Chem, 2024)", "key": {"[1]": {"experiment": "Drug metabolism in human liver S9 fraction assessed as mono-hydroxylation mediated metabolite formation at 2 uM measured for 90 mins by LC-MS/MS analysis", "assay_type": "ADME, subcellular", "settings": "s9, 1.5 h"}, "[2]": {"experiment": "Toxicity in mouse assessed as cell death in liver at 100 to 200 mg/kg measured after 7 days by hematoxylin and eosin staining based analysis", "assay_type": "organism-based", "settings": "in vivo, 168 h, dose 100-200 mg/kg, time 7 day"}}, "data": [{"smiles": "O=C(Cn1cc(CN2CCN(c3ccnc4cc(Cl)ccc34)CC2)nn1)Nc1cccc([N+](=O)[O-])c1", "values": [{"measurement": "Drug metabolism", "setting": "[1]", "result": "Metabolite_Detected"}, {"measurement": "Activity", "setting": "[2]", "result": "Non-Toxic"}]}]}
